Our source for the IC50 values is patent US20260250320A1, “LIPIDATED PEPTIDE INHIBITORS OF INTERLEUKIN-23 RECEPTOR” (Janssen Pharmaceutica NV, priority 2023, published 2026).

Test [1] has as its target T1, IL-23R (Homo sapiens, UniProt Q5VWK5).
T1 construct: HEK293 cells containing IL-23R, IL-12Rβ1 and a firefly luciferase reporter gene driven by a STAT-inducible promoter (Promega); host or cells: HEK293
T1 sequence (Q5VWK5 24-629): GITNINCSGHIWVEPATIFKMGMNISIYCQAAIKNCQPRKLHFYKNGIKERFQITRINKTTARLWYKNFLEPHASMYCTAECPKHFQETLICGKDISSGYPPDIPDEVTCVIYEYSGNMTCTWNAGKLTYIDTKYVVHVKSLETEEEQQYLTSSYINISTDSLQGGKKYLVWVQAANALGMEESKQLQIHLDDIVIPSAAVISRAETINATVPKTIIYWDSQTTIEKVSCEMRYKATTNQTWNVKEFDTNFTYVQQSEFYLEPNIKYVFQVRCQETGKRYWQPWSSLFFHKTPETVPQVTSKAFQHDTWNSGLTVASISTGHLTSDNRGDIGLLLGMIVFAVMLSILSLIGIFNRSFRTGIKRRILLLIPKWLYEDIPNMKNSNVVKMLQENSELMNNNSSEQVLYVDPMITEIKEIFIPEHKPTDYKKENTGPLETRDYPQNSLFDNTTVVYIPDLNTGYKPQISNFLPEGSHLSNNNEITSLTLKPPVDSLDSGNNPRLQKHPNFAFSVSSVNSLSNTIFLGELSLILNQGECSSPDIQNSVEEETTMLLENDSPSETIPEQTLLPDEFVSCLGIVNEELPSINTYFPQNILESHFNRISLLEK
Briefly: IL23R Reporter Assay. Format: cell-based. Particulars: HEK293 cells containing IL-23R, IL-12Rβ1 and STAT-inducible firefly luciferase reporter; 10 ng/mL IL-23 (EC90); 5 h. The method, boiled down: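 IC50 values were fitted with a 4-parameter Hill equation to luciferase signal, scaled between IL-23-only wells (0% inhibition) and 30 μM reference inhibitor (100%). The readout was a STAT-inducible reporter in IL-23R/IL-12Rβ1 HEK293 cells, stimulated with added 10 ng/mL IL-23 (EC90) for 5 h at 37° C and developed with BioGlo.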
(In general: Reporter assays use an easily measured gene product as a stand-in for the process of interest.)

The test system of test [2] is IL-23-stimulated phosphorylated STAT3 in peripheral blood mononuclear cells (PBMCs). Description: PBMC pSTAT3 Assay. The settings on record: PBMCs from healthy donors; 30 min preincubation with peptide; IL-23 5 ng/mL for 30 min; phospho-STAT3 by MSD. It counts as cell-based. In short, it runs like this: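 Phospho-STAT3 quantified by Meso Scale assay in lysates of PBMCs exposed to IL-23 (5 ng/mL, 30 min, 37 °C) after 30 min peptide pretreatment. Cells were cryopreserved donor PBMCs activated 4 days with anti-CD3 plus IL-1β (100 ng/mL) and starved ~4 h; IC50 reported.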

pIC50: −log10 of the molar value. *1 amine or outer side, *2 acyl side, *3 side chain or, on linkers, in order; H or OH if unused. Where a SMILES comes first, the peptide text is derived from it. Bridges are numbered along the chain shown (N, C = ends). Side-chain parts run from the residue outwards. [ ]: non-standard residue; d: D form. The star is where a group is joined. X41 = C[N+](C)(CCCCC*)CCOCCOCCNC(=O)COCCOCCCC(=O)CC[C@H](CC(=O)CCCCCCCCCCCCCCCCC(=O)O)C(=O)O; X34 = O=C(O)CCCCCCCCCCCCCCCCC(=O)C[C@@H](CCC(=O)NCCOCCOCC(=O)NCCOCCOCCN*)C(=O)O; X4 = C[N+](C)(CCCCCCc1ccc(C[C@H](N[*:1])C(=O)[*:2])cc1)CCOCCOCCN[*:3]; Me3N+(CH2)2O(CH2)2O(CH2)2CO = C[N+](C)(C)CCOCCOCCC(=O)*; Trp(7-Me) = Cc1cccc2c(C[C@H](N)C(=O)O)c[nH]c12; C18 diacid = O=C(O)CCCCCCCCCCCCCCCCC(=O)*; γGlu = O=C(O)[C@H](CCC(=O)[*:2])N[*:1]; 2Nal = N[C@@H](Cc1ccc2ccccc2c1)C(=O)O; 3Pal = N[C@@H](Cc1cccnc1)C(=O)O; Lys(Me) = CNCCCC[C@H](N)C(=O)O; Pen = CC(C)(S)[C@H](N)C(=O)O; Thp = NC1(C(=O)O)CCOCC1; X1 = C[N+](C)(C)CCCCC*; AEEA = NCCOCCOCC(=O)O; Sar = CNCC(=O)O Where only a bound is given, the exact number is not on record here.

Usually pIC50 stands for the IC50 on a negative log10 scale, so that one unit is a factor of ten. Take `CC(=O)N(C)CCCC[C@@H]1NC(=O)[C@H](Cc2c[nH]c3c(C)cccc23)NC(=O)[C@H]([C@@H](C)O)NC(=O)[C@H](CC(=O)N(C)C)NC(=O)[C@@H](NC(=O)CCOCCOCC[N+](C)(C)C)C(C)(C)SSC(C)(C)[C@@H](C(=O)N[C@@H](Cc2ccc(CCCCCC[N+](C)(C)CCOCCOCCNC(=O)COCCOCCNC(=O)CC[C@H](NC(=O)CCCCCCCCCCCCCCCCC(=O)O)C(=O)O)cc2)C(=O)N[C@@H](Cc2ccc3ccccc3c2)C(=O)NC2(C(=O)N[C@@H](CC(N)=O)C(=O)N[C@@H](Cc3cccnc3)C(=O)N(C)CC(=O)N(C)C)CCOCC2)NC1=O` [compound 143, cPEG3aCO-Pen(3)-N(N(Me)2)-T-7MeW-K(NMeAc)-Pen(3)-TMAPF(PEG2PEG2gEC18OH)-2Nal-THP-N-3Pya-Sar-CON(Me)2] ({Me3N+(CH2)2O(CH2)2O(CH2)2CO}-[Pen]D(NMe2)T[Trp(7-Me)][Lys(Me)](Ac)[Pen][X4]([AEEA-γGlu-C18 diacid])[2Nal][Thp]N[3Pal][Sar]-NMe2; disulfide 1-6): the values for the negative-log IC50 (pIC50) in test [1] and in test [2] were not above 6.30 and not above 8.30, respectively.

Consider `CC(=O)N(C)CCCC[C@@H]1NC(=O)[C@H](Cc2c[nH]c3c(C)cccc23)NC(=O)[C@H]([C@@H](C)O)NC(=O)[C@H](CC(=O)N(C)C)NC(=O)[C@@H](NC(=O)CCOCCOCC[N+](C)(C)C)C(C)(C)SSC(C)(C)[C@@H](C(=O)N[C@@H](Cc2ccc(OCCCCC[N+](C)(C)CCOCCOCCNC(=O)COCCOCCCC(=O)CC[C@H](CC(=O)CCCCCCCCCCCCCCCCC(=O)O)C(=O)O)cc2)C(=O)N[C@@H](Cc2ccc3ccccc3c2)C(=O)NC2(C(=O)N[C@@H](CCCCN(C)C(C)=O)C(=O)N[C@@H](CC(N)=O)C(=O)N[C@@H](Cc3cccnc3)C(=O)N(C)CC(=O)N(C)C)CCOCC2)NC1=O` [compound 144, cPEG3aCO-Pen(3)-N(N(Me)2)-T-7MeW-K(NMeAc)-Pen(3)-TMAPF(PEG2PEG2gEC18OH)-2Nal-THP-K(NMeAc)-N-3Pya-Sar-CON(Me)2] ({Me3N+(CH2)2O(CH2)2O(CH2)2CO}-[Pen]D(NMe2)T[Trp(7-Me)][Lys(Me)](Ac)[Pen]Y(X41)[2Nal][Thp][Lys(Me)](Ac)N[3Pal][Sar]-NMe2; disulfide 1-6), for which the pIC50 in test [1] was more than 7.30; in test [2] it was 8.30 to 9.30.

Regarding `CC(=O)N(C)CCCC[C@@H]1NC(=O)[C@H](Cc2c[nH]c3c(C)cccc23)NC(=O)[C@H]([C@@H](C)O)NC(=O)[C@H](CC(=O)N(C)C)NC(=O)[C@@H](NC(=O)CCOCCOCC[N+](C)(C)C)C(C)(C)SSC(C)(C)[C@@H](C(=O)N[C@@H](Cc2ccc(OCCCCC[N+](C)(C)C)cc2)C(=O)N[C@@H](Cc2ccc3ccccc3c2)C(=O)NC2(C(=O)N[C@@H](CCCCN(C)C(C)=O)C(=O)N[C@@H](CC(N)=O)C(=O)N[C@@H](Cc3cccnc3)C(=O)N(C)CC(=O)NCCOCCOCCNC(=O)COCCOCCNC(=O)CC[C@H](CC(=O)CCCCCCCCCCCCCCCCC(=O)O)C(=O)O)CCOCC2)NC1=O` [compound 145, cPEG3aCO-Pen(3)-N(N(Me)2)-T-7MeW-K(NMeAc)-Pen(3)-TMAPF-2Nal-THP-K(NMeAc)-N-3Pya-Sar-CO(PEG2PEG2gEC18OH)] ({Me3N+(CH2)2O(CH2)2O(CH2)2CO}-[Pen]D(NMe2)T[Trp(7-Me)][Lys(Me)](Ac)[Pen]Y(X1)[2Nal][Thp][Lys(Me)](Ac)N[3Pal][Sar]-X34; disulfide 1-6), the results for the pIC50 in test [1] and in test [2] were 6.30 to 7.30 and not above 8.30, respectively.
